The source of these data is patent publication US5776970A, “Tryptophan derivatives as protein tyrosine kinase blockers and their use in the treatment of neoplastic diseases” (Yeda Research and Development Co. Ltd., priority 1994, dated 1998).

Converted amounts (≈) assume the structure as drawn.

Data set [1] deals with murine T-cell lymphoma (LB3). Put plainly: insulin-dependent proliferation of murine T-cell lymphoma (LB3), thymidine incorporation. In kind it is cell-based. As for the experimental part:
(§1) LB cells were removed from the peritoneal cavity of BALB/c mice, washed and resuspended in RPMI-1640. Then a continuous line designated LB3 was established in "LB medium" (50% RPMI-1640 plus 50% DCCM-1 in 10% fetal calf serum (FCS)). The LB3 cells were incubated (37° C., 5% CO2) in microplate wells (Nunc, Roskilde, Denmark) with 0.2 ml RPMI-1640 alone and in the same medium containing insulin, fetal calf serum (FCS) or both, and different concentrations of the compound CBZ-DNPS-TRP-TAU as indicated in FIG. 3. Proliferation capacity was determined by thymidine incorporation (^3 H-TdR, 1 μCi/well, specific activity 5 Ci/mM), added to the cells 24 hours later. In a typical experiment, cpm of ^3 H-thymidine incorporated into 30,000 cells was 12-14 fold higher in the presence of insulin or other mitogens than in their absence.
On the technique in general: Uptake of a labelled nucleoside into DNA is a usual measure of proliferation.

For data set [2], the system named is isoproterenol-mediated lipolysis. The data set is described as follows: isoproterenol-mediated lipolysis in rat adipocytes (glycerol release). In kind it is cell-based. As for the experimental part:
In general there are two classes of protein kinases (PKs) in mammalian tissues: (a) PKs which phosphorylate tyrosine moieties in proteins (to phosphotyrosine), and (b) PKs which phosphorylate serine and threonine moieties (to phosphoserine and phosphotreonine). […] An example for such a metabolic effect is lipolysis which depends on protein kinase A. Rat adipocytes (prepared by the method of Rodbell, 1964) were incubated with isoproterenol alone (1 μM) or isoproterenol with CBZ-DNPS-TRP-TAU (200 μM) for one hour at 37° C. The amount of glycerol released from the cells was then determined by spectroscopic procedure (Shechter, 1982).

The next data set relates to rat adipocytes. Put plainly: permeability into cell interiors (intact cell system, lipogenesis). In kind it is cell-based. The following applies: graded in words. As for the experimental part:
Rat adipocytes were prepared essentially by the method of Rodbell, 1964. The fat pads of three rats were cut into small pieces with scissors and digested in 3 ml of Krebs-Ringer-Bicarbonate (KRB)-buffer containing 0.7% bovine serum albumin (BSA) (pH 7.4) with collagenase (1 mg/ml). The digestion was performed in a 25 ml flexible plastic bottle under an atmosphere of carbogen (95% O2, 5% CO2) for 40 min at 37° C. with vigorous shaking. Five ml of buffer was then added, and the cells were squeezed through a mesh screen. The cells were then allowed to stand for several minutes (in a 15 ml plastic test tube at room temperature, floating) and the buffer underneath was removed. This procedure (suspension, floating and removal of buffer underneath) was repeated three times. For [^14 C-U]glucose incorporation (lipogenesis), the fat cell suspensions (3×10^5 cells/ml) were divided into plastic vials (0.5 ml per vial) and incubated for 60 min at 37° C. under an atmosphere of 95% O2, 5% CO2, with 0.2 mM [U-^14 C]glucose, in either the presence or absence of insulin (100 ng/ml) and the indicated concentrations in FIG. 2 of CBZ-DNPS-TRP-TAU. The reaction was terminated by adding toluene-based scintillation fluid (1.0 ml per vial) and the extracted lipids were counted (Shechter and Karlish, 1980). Fat cell suspensions were pre-incubated for 20 min at 37° C. with increasing concentrations of the inhibitors. Results are expressed in FIG. 2 as the percent of maximal stimulation at the indicated concentrations of inhibitors. In all experiments insulin-stimulated lipogenesis was 4- to 5-fold higher than basal; basal ~2000 cpm per 3×10^5 cells/h; Vinsulin 8000-10,000 cpm per 3×10^5 cells/h.
(§2) Various derivatives according to the invention in which R^1 is benzyloxycarbonyl (CBZ) or t-butoxycarbonyl (t-Boc), R^2 is --SO3 H or --PO3 H, n is 1,2 or 3, and R^3 is H, 2-nitrophenylthio (NPS) or 2,4-dinitrophenylthio (DNPS) were prepared and examined in cell-free and intact cell systems. The cell-free assay is PolyGlu4 Tyr phosphorylation by partially purified insulin receptor as described in Example 3. The assay in intact cells (namely, lipogenesis) was carried out as described in Example 4.

For a further data set, the system named is LB3 cells. Put plainly: LB3 cell proliferation in response to various mitogens (IL-2, growth hormone, PMA). It counts as cell-based, murine. As for the experimental part: as §1
Experimental conditions were as described in Example 6 except that lower concentrations of mitogens were applied here (those triggering 50% of maximal proliferation): insulin, interleukin-2 (IL-2), growth hormone and PMA. PMA is an activator of protein kinase C. Protein kinase C in this cell type triggers proliferation by a pathway which is only partially dependent on endogenous tyrosine phosphorylation.

Data set [3] has as its target insulin receptor tyrosine kinase (InsRTK) (Rattus norvegicus, UniProt P15127). Put plainly: PolyGlu4 Tyr phosphorylation by partially purified (wheat-germ-agglutinin purified) rat liver insulin receptor, cell-free. In kind it is biochemical. Details: wheat-germ-agglutinin purified rat liver insulin receptor; from tissue; host or cells: rat liver (wheat-germ-agglutinin purified). As for the experimental part:
An assay of PolyGlu4 Tyr phosphorylation by partially purified insulin receptor was run for 30 min at 22° C. in 60 μl of 50 mM Hepes (pH 7.4)-0.1% Triton X-100 containing wheat-germ-agglutinin purified rat liver insulin receptor (1 μg protein), MgCl2 25 mM; MnCl2, 1 mM, ATP 17 μM, insulin 0.1 μM, PolyGlu4 Tyr, 0.17 mg/ml and the indicated concentrations in FIG. 1 of CBZ-DNPS-TRP-TAU. Phosphotyrosine content in PolyGlu4 Tyr was determined by a radioimmunoassay procedure (Shisheva et al., 1991). […] The inhibitory potency of other derivatives of formula I on InsRTK-catalyzed PolyGlu4 Tyr phosphorylation in cell-free experiments was determined. […] For comparison, the IC50 values for AC-TRP-TAU and L-tryptophan are 5 mM and >30 mM, respectively.
as §2

The test system of data set [4] is vanadate-stimulated lipogenesis in rat adipocytes. The data set is described as follows: vanadate-stimulated lipogenesis in rat adipocytes. It counts as cell-based. The following applies: Adipocyte, intact rat adipocytes, read-out: IC50, insulin-like effects of vanadate ions (lipogenesis).
The subject of data set [5] is insulin-stimulated lipogenesis in rat adipocytes. The data set is described as follows: insulin-stimulated lipogenesis in rat adipocytes ([U-14C]glucose incorporation). In kind it is cell-based. The following applies: Adipocyte; intact rat adipocytes; insulin 100 ng/ml; 20 min pre-incubation, 60 min at 37° C.; read-out: IC50, insulin-dependent lipogenesis. As for the experimental part:
The fat pads of three rats were cut into small pieces with scissors and digested in 3 ml of Krebs-Ringer-Bicarbonate (KRB)-buffer containing 0.7% bovine serum albumin (BSA) (pH 7.4) with collagenase (1 mg/ml). […] Five ml of buffer was then added, and the cells were squeezed through a mesh screen. The cells were then allowed to stand for several minutes (in a 15 ml plastic test tube at room temperature, floating) and the buffer underneath was removed. This procedure (suspension, floating and removal of buffer underneath) was repeated three times. […] Fat cell suspensions were pre-incubated for 20 min at 37° C. with increasing concentrations of the inhibitors. Results are expressed in FIG. 2 as the percent of maximal stimulation at the indicated concentrations of inhibitors.

For orientation: IC50 means the midpoint of a concentration-inhibition curve. Broadly, the solubility is how much of the substance goes into solution per volume.

insulin receptor tyrosine kinase (InsRTK), sequence (P15127 764-1383 limits assumed): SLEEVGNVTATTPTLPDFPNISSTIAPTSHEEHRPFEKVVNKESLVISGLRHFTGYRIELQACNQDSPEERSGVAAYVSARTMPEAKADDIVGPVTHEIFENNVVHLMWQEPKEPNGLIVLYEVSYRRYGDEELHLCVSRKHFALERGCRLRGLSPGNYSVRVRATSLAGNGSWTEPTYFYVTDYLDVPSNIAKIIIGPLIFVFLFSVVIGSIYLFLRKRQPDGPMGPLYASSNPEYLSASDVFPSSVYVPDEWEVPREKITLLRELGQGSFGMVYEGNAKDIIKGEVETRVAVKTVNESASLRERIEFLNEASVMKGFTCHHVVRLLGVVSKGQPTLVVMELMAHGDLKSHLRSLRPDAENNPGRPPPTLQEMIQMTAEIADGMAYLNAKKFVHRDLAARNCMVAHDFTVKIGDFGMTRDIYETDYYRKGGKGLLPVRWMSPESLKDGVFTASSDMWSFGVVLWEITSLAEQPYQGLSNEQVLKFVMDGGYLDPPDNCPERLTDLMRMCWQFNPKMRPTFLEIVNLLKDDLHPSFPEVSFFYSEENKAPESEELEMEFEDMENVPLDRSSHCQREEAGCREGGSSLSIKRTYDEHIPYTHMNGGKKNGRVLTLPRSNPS
insulin receptor tyrosine kinase (InsRTK), sequence (P15127 27-759 partner limits assumed): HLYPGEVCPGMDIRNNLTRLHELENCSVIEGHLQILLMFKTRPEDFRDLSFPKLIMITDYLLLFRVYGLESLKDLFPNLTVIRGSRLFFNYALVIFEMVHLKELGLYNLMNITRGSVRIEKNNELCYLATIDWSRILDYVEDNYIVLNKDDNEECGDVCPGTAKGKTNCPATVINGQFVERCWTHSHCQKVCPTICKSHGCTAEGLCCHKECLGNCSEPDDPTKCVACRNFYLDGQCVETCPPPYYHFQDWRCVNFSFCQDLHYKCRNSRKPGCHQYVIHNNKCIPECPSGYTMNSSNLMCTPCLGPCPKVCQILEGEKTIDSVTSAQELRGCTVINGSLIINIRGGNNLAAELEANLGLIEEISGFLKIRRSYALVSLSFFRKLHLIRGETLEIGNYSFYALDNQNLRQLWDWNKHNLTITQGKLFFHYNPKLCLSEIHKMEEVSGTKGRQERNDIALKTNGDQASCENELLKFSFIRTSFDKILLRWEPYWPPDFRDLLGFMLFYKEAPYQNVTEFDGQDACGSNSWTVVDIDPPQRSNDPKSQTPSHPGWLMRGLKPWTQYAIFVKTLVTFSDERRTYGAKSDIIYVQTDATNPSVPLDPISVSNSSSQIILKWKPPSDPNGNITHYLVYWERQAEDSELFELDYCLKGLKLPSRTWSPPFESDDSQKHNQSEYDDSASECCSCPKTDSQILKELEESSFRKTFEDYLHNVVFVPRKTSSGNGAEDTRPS

On to `O=C(N[C@@H](Cc1c(Sc2ccc([N+](=O)[O-])cc2[N+](=O)[O-])[nH]c2ccccc12)C(=O)NCCS(=O)(=O)O)OCc1ccccc1` [CBZ-DNPS-TRP-TAU], for which the “concentration range lower than that required to inhibit normal metabolic biological effects of insulin” value in data set [1] (LB3 proliferation vs lipogenesis in rat adipocytes (FIG. 2)) is approximately 200 times. Further, the IC50 in data set [1] (Mus musculus, T-cell, LB3, insulin-dependent, thymidine added 24 hours later) amounted to 0.95 µM; in data set [3] it was 130 µM; in data set [4], 45 µM; in data set [5], 170 µM. Further, the “effect in inhibiting isoproterenol-mediated lipolysis” value in data set [2] (200 μM, isoproterenol 1 μM, one hour at 37° C.) was “negligible effect”. In addition, the “Amount of glycerol released” value in data set [2] (CBZ-DNPS-TRP-TAU 200 μM plus isoproterenol 1 μM) is reported as 154 nmol/3 × 10^5 cells/3 h. Further, in data set [2] (Rattus norvegicus, Adipocyte, CBZ-DNPS-TRP-TAU 200 μM plus isoproterenol 1 μM, read-out: Percent lipolysis), the activity at 200 µM is 93%. Moreover, the “Permeability into cell interiors” value in the data set on rat adipocytes is reported as “excellent”. Besides, the “inhibition of IL-2-dependent proliferation of the T-cell lymphoma” value in the data set with LB3 cells (IL-2 at 50% of maximal proliferation) was “blocks”. Moreover, in the data set with LB3 cells (PMA at 50% of maximal proliferation), the “inhibition of protein kinase C-dependent proliferation” value is recorded as “at significantly higher concentrations”. In addition, the “inhibition of growth hormone-dependent proliferation of the T-cell lymphoma” value in the data set on LB3 cells (growth hormone at 50% of maximal proliferation) is “blocks”. Besides, the solubility is 20 mM (≈ 12.9 mg/mL) in “solubility” (dmf, organic solvent or mixture); 20 mM (≈ 12.9 mg/mL) in the data set “solubility” (dmso, organic solvent or mixture); not above 2 mM in the data set “solubility” (water).
